“And” between values parts separate entries of the source, which are not always exact repeats. Equal values may be shown once.
How the values were obtained:
[1] = Plasma pharmacokinetics of acalabrutinib and ACP‐5862; type: in vivo, Japanese patients; conditions: for M/P ratio (metabolite to parent), AUC / M/P ratio (metabolite to parent), AUC0–12 / M/P ratio (metabolite to parent), AUC0–t / M/P ratio (metabolite to parent), Cmax: part 1
BTK = conditions: no reference given; cited from earlier work
[2] = multiple dose 100 mg BID, day 8, part 1
[3] = multiple dose 100 mg BID, day 8, part 1, fasting
[4] = single dose 100 mg acalabrutinib, part 1, fasting

In the case of CC#CC(=O)NCCCC(=O)c1nc(-c2ccc(C(=O)Nc3ccccn3)cc2)c2c(N)nccn12 [ACP‐5862], the “RAC (extent of accumulation on multiple dosing), Amean ± SD” value [1, 2] is reported as 2.72 and 2.722 ± 2.826, the “TC (time dependency of pharmacokinetics), Amean ± SD” value [1, 2] is reported as 1.444 ± 0.8136 and the “AUC0–12, Gmean (CV)” value [1, 3] is reported as 1987 (8%) ng∙h/mL. The “AUC0–t, Gmean (CV)” value [1, 3] was 1985 (8%) ng∙h/mL, the “AUC (zero to infinity), Gmean (CV)” value [1, 3] was 2099 (7%) ng∙h/mL and the “Cmax, Gmean (CV)” value [1, 3] was 629.7 (27%) ng/mL. For the same compound, the “t1/2, Amean ± SD” value [1, 3] was 3.216 ± 0.3938 h, the “tmax, median (min, max)” value [1, 3] was 0.940 (0.750, 1.080) h and the “M/P ratio (metabolite to parent), AUC” value ([1]; multiple dose) was 1.73. For the same compound, the “M/P ratio (metabolite to parent), AUC0–12” value ([1]; multiple dose) was 1.64, the “M/P ratio (metabolite to parent), AUC0–t” value ([1]; multiple dose) was 1.65 and the “M/P ratio (metabolite to parent), Cmax” value ([1]; multiple dose) was 0.56. For the same compound, the “AUC0–12, Gmean (CV)” value [1, 4] was 1092 (124%) ng∙h/mL, the “AUC0–t, Gmean (CV)” value [1, 4] was 1306 (94%) ng∙h/mL and the “AUC (zero to infinity), Gmean (CV)” value [1, 4] was 1557 (60%) ng∙h/mL. For the same compound, the “Cmax, Gmean (CV)” value [1, 4] was 316.5 (260%) ng/mL, the “t1/2, Amean ± SD” value [1, 4] was 10.18 ± 7.986 h and the “tmax, median (min, max)” value [1, 4] was 0.965 (0.900, 4.000) h. The “M/P ratio (metabolite to parent), AUC” value ([1]; single dose) was 1.40, the “M/P ratio (metabolite to parent), AUC0–12” value ([1]; single dose) was 1.23 and the “M/P ratio (metabolite to parent), AUC0–t” value ([1]; single dose) was 1.36. The “M/P ratio (metabolite to parent), Cmax” value ([1]; single dose) was 0.53 and the “Potency for BTK inactivation relative to the parent agent acalabrutinib” value (BTK) was “approximately 50%”.

Reference: publication PMC8177795 (Cancer Science, 2021)
